Laboratory results reported in US20210345611A1, “EXTENDED AND CONTINUOUS RELEASE COMPOSITIONS FOR PLANT HEALTH AND METHOD OF USE” (Verdesian Life Sciences U.S., LLC, priority 2018, published 2021).

Assay: PGA stability in 250 mM sodium phosphate aqueous buffers (HPLC)
Type: physicochemical
Protocol: Analytical note: PGA measurements in this section are done on a free acid basis using HPLC techniques, with PGA peak in each analysis checked for purity using UV-Vis spectroscopy technique by comparison with a known standard reference material. Experiments were conducted to determine the relative stability of PGA to degradation in 250 mM sodium phosphate aqueous buffers at pH levels of interest representing pH levels commonly found in soils. PGA is sufficiently stable at the pH levels of interest. PGA/pH 5.75 L-Pyroglutamic acid was dissolved to a concentration of about 1.0% in 250 mM sodium phosphate aqueous buffer at pH of 5.75, and stored for 24 hours at 50 degrees C. […] PGA/pH 6.75 L-Pyroglutamic acid was dissolved to a concentration of about 1.0% in 250 mM sodium phosphate aqueous buffer at pH of 6.75, and stored for 24 hours at 50 degrees C. […] PGA/pH 7.75 L-Pyroglutamic acid was dissolved to a concentration of about 1.0% in 250 mM sodium phosphate aqueous buffer at pH of 7.75, and stored for 24 hours at 50 degrees C.

Measured: decomposition by HPLC analysis

O=C1CC[C@@H](C(=O)O)N1 [L-Pyroglutamic acid]
No detectable decomposition: about 1.0% in 250 mM sodium phosphate buffer pH 5.75, 24 hours at 50 degrees C | about 1.0% in 250 mM sodium phosphate buffer pH 6.75, 24 hours at 50 degrees C | about 1.0% in 250 mM sodium phosphate buffer pH 7.75, 24 hours at 50 degrees C
